Measurements: the NIST ThermoML archive (doi:10.1016/j.fluid.2007.07.029)

Conditions: Liquid, Transpiration method

CCCCC(CC)C(=O)OCC(COC(=O)C(CC)CCCC)(COC(=O)C(CC)CCCC)COC(=O)C(CC)CCCC (stereo not given) [pentaerythritol tetra(2-ethylhexanoate)]
Conditions	vapor or sublimation pressure [kPa]
353.96 K	1.27e-07
363.89 K	3.67e-07
373.81 K	1.07e-06
383.56 K	3.37e-06
393.56 K	8.94e-06
403.44 K	2.37e-05
413.44 K	5.82e-05
423.4 K	0.000133
433.18 K	0.000287
443.17 K	0.000644

CCCCCCC(=O)OCC(COC(=O)CCCCCC)(COC(=O)CCCCCC)COC(=O)CCCCCC [pentaerythritol tetraheptanoate]
Conditions	vapor or sublimation pressure [kPa]
373.81 K	2.58e-07
393.48 K	2.61e-06
413.4 K	2.2e-05
433.36 K	0.000131

CCCCCCCCC(=O)OCC(COC(=O)CCCCCCCC)(COC(=O)CCCCCCCC)COC(=O)CCCCCCCC [pentaerythritol tetranonanoate]
Conditions	vapor or sublimation pressure [kPa]
394.55 K	5.57e-08
414.72 K	5.21e-07
435.03 K	3.98e-06
435.11 K	3.97e-06
455.36 K	2.82e-05
476.47 K	0.000174

CCCCC(=O)OCC(COC(=O)CCCC)(COC(=O)CCCC)COC(=O)CCCC [pentaerythritol tetrapentanoate]
Conditions	vapor or sublimation pressure [kPa]
334.02 K	2.55e-07
353.94 K	2.88e-06
373.62 K	2.61e-05
393.34 K	0.000166
413.08 K	0.000935
